The values that follow come from the NIST ThermoML archive (doi:10.1016/j.fluid.2010.12.003).

A short description of the data set: xn = mol fraction of the nth substance listed. Particulars: 101 kPa, Fluid (supercritical or subcritical phases), Taylor dispersion method, x1 = 0.

On to `COc1cc(-c2[o+]c3cc(O)cc(O)c3cc2O[C@@H]2O[C@H](CO)[C@@H](O)[C@H](O)[C@H]2O)ccc1O.[Cl-]` + O, for which the binary diffusion coefficient (298 K) is 2.19e-10 m2/s; the binary diffusion coefficient (312 K) was determined as 2.67e-10 m2/s; the binary diffusion coefficient (332 K) was 3.65e-10 m2/s; the binary diffusion coefficient (352 K) came to 4.52e-10 m2/s; the binary diffusion coefficient (372 K) is 5.39e-10 m2/s; the binary diffusion coefficient (392 K) turned out to be 6.18e-10 m2/s. Besides, the binary diffusion coefficient (413 K) worked out at 6.49e-10 m2/s.

Turning to `Oc1cc(O)c2c(c1)O[C@H](c1ccc(O)c(O)c1)[C@H](O)C2` + O, the binary diffusion coefficient reads like this: (298 K) 1.97e-11 m2/s; (312 K) 2.66e-11 m2/s; (332 K) 3.38e-11 m2/s; (352 K) 3.89e-11 m2/s; (372 K) 4.06e-11 m2/s; (392 K) 5.19e-11 m2/s.

Regarding `O=C(O)c1cc(O)c(O)c(O)c1` [3,4,5-trihydroxybenzoic acid] + O, the binary diffusion coefficient reads like this: (298 K) 2.5e-10 m2/s; (312 K) 2.87e-10 m2/s; (332 K) 3.3e-10 m2/s; (352 K) 4.07e-10 m2/s.

In the case of `O=C(O)c1ccc(O)c(O)c1` [3,4-dihydroxybenzoic acid] + O, the binary diffusion coefficient by setting is: (298 K) 2.46e-10 m2/s; (312 K) 3.2e-10 m2/s; (332 K) 3.84e-10 m2/s; (352 K) 4.15e-10 m2/s; (372 K) 5.12e-10 m2/s; (392 K) 5.27e-10 m2/s.

Consider `Oc1cc(O)c2c(c1)O[C@H](c1ccc(O)c(O)c1)[C@@H](O)C2` [(+)-catechin] + O, for which the binary diffusion coefficient runs as follows: (298 K) 2.33e-10 m2/s; (312 K) 3.07e-10 m2/s; (332 K) 3.76e-10 m2/s; (352 K) 4.05e-10 m2/s; (372 K) 4.25e-10 m2/s; (392 K) 4.78e-10 m2/s. Moreover, the binary diffusion coefficient (413 K) turned out to be 5.3e-10 m2/s.

For the compound `O=c1c(O[C@@H]2O[C@H]([C@H](O)CO)[C@H](O)[C@H]2O)c(-c2ccc(O)c(O)c2)oc2cc(O)cc(O)c12` [isoquercitrin] + O, the binary diffusion coefficient by setting is: (298 K) 1.66e-10 m2/s; (312 K) 2.19e-10 m2/s; (332 K) 2.77e-10 m2/s; (352 K) 3.07e-10 m2/s; (372 K) 3.51e-10 m2/s.

With `COc1cc(-c2[o+]c3cc(O)cc(O[C@@H]4O[C@H](CO)[C@@H](O)[C@H](O)[C@H]4O)c3cc2O[C@@H]2O[C@H](CO)[C@@H](O)[C@H](O)[C@H]2O)cc(OC)c1O.[Cl-]` [malvidin-3,5-diglucoside chloride] + O, the binary diffusion coefficient by setting is: (298 K) 2.16e-10 m2/s; (312 K) 2.71e-10 m2/s; (332 K) 3.6e-10 m2/s; (352 K) 4.41e-10 m2/s; (372 K) 5.15e-10 m2/s; (392 K) 5.3e-10 m2/s. Moreover, the binary diffusion coefficient (413 K) stood at 5.79e-10 m2/s.
